Source: ChEMBL document CHEMBL4393715, “Design, synthesis and biological evaluation of the thioether-containing lenalidomide analogs with anti-proliferative activities” (Eur J Med Chem, 2019)
Each block holds one compound with its values, some of them ahead of it.

How the values were obtained:
MM1.S = assay: Antiproliferative activity against human MM1S cells measured after 168 hrs by CellTiter96 Aqueous non-radioactive cell proliferation assay; assay type: functional, cell-based
[1] = Antiproliferative activity against human Mino cells measured after 72 hrs by CellTiter96 Aqueous non-radioactive cell proliferation assay; assay type: functional, cell-based
MV4-11 = assay: Antiproliferative activity against human MV411 cells measured after 168 hrs by CellTiter96 Aqueous non-radioactive cell proliferation assay; assay type: functional, cell-based; details: MV4-11, 168 h
PBMC [2] = assay: Antiinflammatory activity in human PBMC cells assessed as reduction in LPS-induced TNF-alpha production preincubated for 1 hr followed by LPS addition and measured after 18 to 20 hrs by ELISA; assay type: functional, cell-based
PBMC [3] = assay: Cytotoxicity against human PBMC cells by CellTiter96 Aqueous non-radioactive cell proliferation assay; assay type: cell-based
Raji = assay: Antiproliferative activity against human Raji cells measured after 168 hrs by CellTiter96 Aqueous non-radioactive cell proliferation assay; assay type: functional, cell-based
THP-1 = assay: Antiproliferative activity against human THP1 cells measured after 168 hrs by CellTiter96 Aqueous non-radioactive cell proliferation assay; assay type: functional, cell-based; details: THP-1, 168 h
JeKo-1 = assay: Antiproliferative activity against human JeKo1 cells measured after 72 hrs by CellTiter96 Aqueous non-radioactive cell proliferation assay; assay type: functional, cell-based; details: JeKo-1, 72 h
Kasumi 1 = assay: Antiproliferative activity against human Kasumi-1 cells measured after 168 hrs by CellTiter96 Aqueous non-radioactive cell proliferation assay; assay type: functional, cell-based; details: Kasumi 1, 168 h
Z-138 = assay: Antiproliferative activity against human Z138 cells measured after 72 hrs by CellTiter96 Aqueous non-radioactive cell proliferation assay; assay type: functional, cell-based; details: Z-138, 72 h
RPMI-8226 = assay: Antiproliferative activity against human RPMI8226 cells measured after 72 hrs by CellTiter96 Aqueous non-radioactive cell proliferation assay; assay type: functional, cell-based; details: RPMI-8226, 72 h
U-266 = assay: Antiproliferative activity against human U266 cells measured after 72 hrs by CellTiter96 Aqueous non-radioactive cell proliferation assay; assay type: functional, cell-based; details: U-266, 72 h
[4] = Volume of distribution at steady state in BALB/c mouse at 5 mg/kg, iv and measured up to 24 hrs by LC-MS/MS analysis; assay type: ADME, organism-based; details: in vivo, read-out: Vdss
[5] = Clearance in BALB/c mouse at 5 mg/kg, iv and measured up to 24 hrs by LC-MS/MS analysis; assay type: ADME, organism-based; details: in vivo
[6] = MRT (infinity) in BALB/c mouse at 5 mg/kg, iv and measured up to 24 hrs by LC-MS/MS analysis; assay type: ADME, organism-based; details: in vivo
[7] = AUC (infinity) in BALB/c mouse at 20 mg/kg, po and measured up to 24 hrs by LC-MS/MS analysis; assay type: ADME, organism-based; set-up: dose 20 mg/kg, route oral, time infinity; details: in vivo
[8] = Cmax in BALB/c mouse at 20 mg/kg, po and measured up to 24 hrs by LC-MS/MS analysis; assay type: ADME, organism-based; set-up: dose 20 mg/kg, route oral; details: in vivo
[9] = Oral bioavailability in BALB/c mouse at 20 mg/kg and measured up to 24 hrs by LC-MS/MS analysis; assay type: ADME, organism-based; details: in vivo
[10] = Half-life in BALB/c mouse at 5 mg/kg, iv and measured up to 24 hrs by LC-MS/MS analysis; assay type: ADME, organism-based; details: in vivo
[11] = Terminal elimination half life in BALB/c mouse at 20 mg/kg, po and measured up to 24 hrs by LC-MS/MS analysis; assay type: ADME, organism-based; details: in vivo, read-out: LambdaZ (converted)
[12] = Tmax in BALB/c mouse at 20 mg/kg, po and measured up to 24 hrs by LC-MS/MS analysis; assay type: ADME, organism-based; details: in vivo
[13] = AUC (infinity) in BALB/c mouse at 5 mg/kg, iv and measured up to 24 hrs by LC-MS/MS analysis; assay type: ADME, organism-based; set-up: dose 5 mg/kg, route intravenous, time infinity; details: in vivo

SMILES: CCCCCSc1cccc2c1CN(C1CCC(=O)NC1=O)C2=O (centres undefined)
IC50 (MM1.S): 1.1 nM | IC50 [1]: 160 nM | IC50 (MV4-11): > 20000 nM

SMILES: Nc1ccc2c(c1)C(=O)N(C1CCC(=O)NC1=O)C2 (centres undefined)
IC50 (PBMC [2]): > 100000 nM

SMILES: CNC(=O)c1ccc(CSc2cccc3c2CN(C2CCC(=O)NC2=O)C3=O)cc1 (centres undefined)
IC50 [1]: 28.3 nM

SMILES: COC(=O)c1ccc(CSc2cccc3c2CN(C2CCC(=O)NC2=O)C3=O)cc1 (centres undefined)
IC50 [1]: 7.4 nM

SMILES: CC1CN(C(=O)c2ccc(CSc3cccc4c3CN(C3CCC(=O)NC3=O)C4=O)cc2)CC(C)O1 (centres undefined)
IC50 [1]: 6.5 nM

SMILES: O=C1CCC(N2Cc3c(cccc3S(=O)(=O)Cc3ccc(CN4CCOCC4)cc3)C2=O)C(=O)N1 (centres undefined)
IC50 [1]: > 20000 nM

SMILES: NC(=O)c1ccc(CSc2cccc3c2CN(C2CCC(=O)NC2=O)C3=O)cc1 (centres undefined)
IC50 [1]: 35.4 nM

SMILES: CCNC(=O)c1ccc(CSc2cccc3c2CN(C2CCC(=O)NC2=O)C3=O)cc1 (centres undefined)
IC50 [1]: 4.2 nM

SMILES: Nc1cccc2c1CN(C1CCC(=O)NC1=O)C2=O (centres undefined) [LENALIDOMIDE]
IC50 (PBMC [3]): > 20000 nM | IC50 (Raji): > 20000 nM | IC50 (THP-1): > 20000 nM | IC50 (JeKo-1): > 20000 nM | IC50 (Kasumi 1): > 20000 nM | IC50 (Z-138): > 20000 nM | IC50 (MM1.S): 50 nM | IC50 [1]: > 20000 nM | IC50 (MV4-11): > 20000 nM | IC50 (RPMI-8226): > 20000 nM | IC50 (U-266): > 20000 nM

SMILES: O=C1CCC(N2Cc3c(cccc3[S+]([O-])Cc3ccc(CN4CCOCC4)cc3)C2=O)C(=O)N1 (centres undefined)
IC50 [1]: 100 nM

SMILES: Cc1ccc(NC(=O)NCc2ccc3c(c2)CN(C2CCC(=O)NC2=O)C3=O)cc1Cl (centres undefined)
IC50 (PBMC [3]): 0.3 nM | IC50 (Raji): 20.4 nM | IC50 (THP-1): 1.5 nM | IC50 (JeKo-1): 1.2 nM | IC50 (Kasumi 1): 0.8 nM | IC50 (Z-138): 0.4 nM | IC50 (MM1.S): 0.3 nM | IC50 [1]: 0.4 nM | IC50 (MV4-11): 0.2 nM | IC50 (RPMI-8226): 5.5 nM | IC50 (U-266): 2 nM

SMILES: O=C1CCC(N2Cc3c(SCc4ccc(C(=O)N5CCOCC5)cc4)cccc3C2=O)C(=O)N1 (centres undefined)
IC50 [1]: 1.9 nM

SMILES: Nc1ccc2c(c1)CN(C1CCC(=O)NC1=O)C2=O (centres undefined)
IC50 (PBMC [2]): > 100000 nM

SMILES: Nc1cccc2c1C(=O)N(C1CCC(=O)NC1=O)C2 (centres undefined)
IC50 (PBMC [2]): > 100000 nM

SMILES: CC1CC(C)CN(C(=O)c2ccc(CSc3cccc4c3CN(C3CCC(=O)NC3=O)C4=O)cc2)C1 (centres undefined)
IC50 [1]: 6 nM

SMILES: CN1CCN(C(=O)c2ccc(CSc3cccc4c3CN(C3CCC(=O)NC3=O)C4=O)cc2)CC1 (centres undefined)
IC50 [1]: 3.4 nM

SMILES: CC(C)(C)OC(=O)c1ccc(CSc2cccc3c2CN(C2CCC(=O)NC2=O)C3=O)cc1 (centres undefined)
IC50 [1]: 1.1 nM

Now from value to compound, other results behind:

IC50 (MM1.S): 1.1 nM | IC50 (MV4-11): > 20000 nM
SMILES: O=C1CCC(N2Cc3c(SCc4ccccc4)cccc3C2=O)C(=O)N1 (centres undefined)
IC50 [1]: 6.3 nM

IC50 (Raji): > 20000 nM | IC50 (THP-1): > 20000 nM | IC50 (MM1.S): 0.9 nM | IC50 (MV4-11): > 20000 nM | IC50 (RPMI-8226): 40 nM
SMILES: O=C1CCC(N2Cc3c(SCc4ccc(F)cc4)cccc3C2=O)C(=O)N1 (centres undefined)
IC50 (PBMC [3]): > 20000 nM | IC50 (JeKo-1): > 20000 nM | IC50 (Kasumi 1): > 20000 nM | IC50 (Z-138): > 20000 nM | IC50 [1]: 2.6 nM | IC50 (U-266): 2.6 nM

IC50 (MM1.S): 2.9 nM | IC50 (MV4-11): > 20000 nM
SMILES: N#Cc1ccccc1CSc1cccc2c1CN(C1CCC(=O)NC1=O)C2=O (centres undefined)
IC50 [1]: 30.5 nM

IC50 (Raji): > 20000 nM | IC50 (THP-1): > 20000 nM | IC50 (MM1.S): 0.4 nM | IC50 (MV4-11): > 20000 nM | IC50 (RPMI-8226): 5.4 nM
SMILES: Cc1ccc(CSc2cccc3c2CN(C2CCC(=O)NC2=O)C3=O)cc1 (centres undefined)
IC50 (PBMC [3]): > 20000 nM | IC50 (JeKo-1): > 20000 nM | IC50 (Kasumi 1): > 20000 nM | IC50 (Z-138): > 20000 nM | IC50 [1]: 2.9 nM | IC50 (U-266): 5.6 nM

IC50 (MM1.S): 1.4 nM | IC50 (MV4-11): > 20000 nM
SMILES: N#Cc1cccc(CSc2cccc3c2CN(C2CCC(=O)NC2=O)C3=O)c1 (centres undefined)
IC50 [1]: 8 nM

IC50 (Raji): > 20000 nM | IC50 (THP-1): > 20000 nM | IC50 (MM1.S): 1.3 nM | IC50 (MV4-11): > 20000 nM | IC50 (RPMI-8226): 200 nM
SMILES: N#Cc1ccc(CSc2cccc3c2CN(C2CCC(=O)NC2=O)C3=O)cc1 (centres undefined)
IC50 (PBMC [3]): > 20000 nM | IC50 (JeKo-1): > 20000 nM | IC50 (Kasumi 1): > 20000 nM | IC50 (Z-138): > 20000 nM | IC50 [1]: 3.7 nM | IC50 (U-266): > 20000 nM

Vd [4]: 4.69 L/kg | clearance [5]: 210 mL/min/kg | MRT inf [6]: 22.2 min | AUC(0-inf) [7]: 288 ng·h/mL | Cmax [8]: 496 ng/mL | bioavailability [9]: 17.6% | half-life [10]: 52.8 min | half-life [11]: 85.8 min | Tmax [12]: 8.4 min | AUC(0-inf) [13]: 397 ng·h/mL
SMILES: O=C1CCC(N2Cc3c(SCc4ccc(CN5CCOCC5)cc4)cccc3C2=O)C(=O)N1 (centres undefined)
IC50 [1]: 3.3 nM

IC50 (MM1.S): 2.1 nM | IC50 (MV4-11): > 20000 nM
SMILES: CSc1cccc2c1CN(C1CCC(=O)NC1=O)C2=O (centres undefined)
IC50 [1]: 930 nM

IC50 (MM1.S): 1.1 nM | IC50 (MV4-11): > 20000 nM
SMILES: O=C1CCC(N2Cc3c(SCc4ccccc4Cl)cccc3C2=O)C(=O)N1 (centres undefined)
IC50 [1]: 11.6 nM

IC50 (MM1.S): 1.1 nM | IC50 (MV4-11): > 20000 nM
SMILES: O=C1CCC(N2Cc3c(SCc4cccc(Cl)c4)cccc3C2=O)C(=O)N1 (centres undefined)
IC50 [1]: 2.4 nM

Vd [4]: 5.31 L/kg | clearance [5]: 197 mL/min/kg | MRT inf [6]: 27 min | AUC(0-inf) [7]: 34.1 ng·h/mL | Cmax [8]: 16.7 ng/mL | bioavailability [9]: 2.9% | half-life [10]: 42 min | half-life [11]: 84.6 min | Tmax [12]: 30 min | AUC(0-inf) [13]: 424 ng·h/mL
SMILES: O=C1CCC(N2Cc3c(SCc4ccc(C(=O)N5CCCCC5)cc4)cccc3C2=O)C(=O)N1 (centres undefined)
IC50 [1]: 0.5 nM

IC50 (MM1.S): 0.4 nM | IC50 (MV4-11): > 20000 nM
SMILES: Cc1cccc(CSc2cccc3c2CN(C2CCC(=O)NC2=O)C3=O)c1 (centres undefined)
IC50 [1]: 3.3 nM

IC50 (MM1.S): 0.6 nM | IC50 (MV4-11): > 20000 nM
SMILES: O=C1CCC(N2Cc3c(SCc4ccccc4F)cccc3C2=O)C(=O)N1 (centres undefined)
IC50 [1]: 2.9 nM

IC50 (MM1.S): 1.8 nM | IC50 (MV4-11): > 20000 nM
SMILES: Cc1ccccc1CSc1cccc2c1CN(C1CCC(=O)NC1=O)C2=O (centres undefined)
IC50 [1]: 16.6 nM

IC50 (MM1.S): 0.9 nM | IC50 (MV4-11): > 20000 nM
SMILES: O=C1CCC(N2Cc3c(SCc4cccc(F)c4)cccc3C2=O)C(=O)N1 (centres undefined)
IC50 [1]: 4.3 nM
